Reference: ChEMBL document CHEMBL1154885, “Heat shock protein 90: inhibitors in clinical trials” (J Med Chem, 2010)
Values after ≈ are worked out from the molar mass of the structure shown.

How the values were obtained:
[1] = system: Rattus norvegicus; assay: Toxicity in iv dosed rat assessed as maximum tolerated dose; format: organism-based; details: in vivo
[2] = Chemical stability assessed as half life; format: physicochemical
[3] = system: Canis familiaris; assay: Toxicity in iv dosed dog assessed as maximum tolerated dose; format: organism-based, Canis lupus familiaris; details: in vivo
[4] = Clearance in human at 220 mg/m2 administered as DMSO/egg phospholipid formulation; format: ADME, organism-based; details: in vivo
[5] = Apparent volume of distribution in tumor of mouse bearing human A2780 cells at 80 mg/kg, ip administered as DMSO/egg phospholipid formulation; format: ADME, organism-based, Neoplasm; set-up: dose 80 mg/kg, route intraperitoneal; details: in vivo
[6] = Half life in human at 220 mg/m2 administered as DMSO/egg phospholipid formulation; format: ADME, organism-based; details: in vivo
[7] = AUC in plasma of mouse bearing human A2780 cells at 80 mg/kg, ip administered as DMSO/egg phospholipid formulation; format: ADME, organism-based; set-up: dose 80 mg/kg, route intraperitoneal
[8] = Cmax in plasma of mouse bearing human A2780 cells at 80 mg/kg, ip administered as DMSO/egg phospholipid formulation; format: ADME, organism-based; set-up: dose 80 mg/kg, route intraperitoneal
[9] = system: Liver; assay: Apparent volume of distribution in liver of mouse bearing human A2780 cells at 80 mg/kg, ip administered as DMSO/egg phospholipid formulation; format: ADME, organism-based; set-up: dose 80 mg/kg, route intraperitoneal; details: in vivo
[10] = Cmax in tumor of mouse bearing human A2780 cells at 80 mg/kg, ip administered as DMSO/egg phospholipid formulation; format: ADME, organism-based, Neoplasm; set-up: dose 80 mg/kg, route intraperitoneal; details: read-out: Cmax_tumor
[11] = system: NCI-H1650; assay: Antitumor activity against human NCI-H1650 cells xenografted in mouse at 100 mg/kg administered daily for 5 days a week; format: functional; details: NCI-H1650, 120 h, read-out: TGI
[12] = system: Liver; assay: Clearance in liver of mouse bearing human A2780 cells at 80 mg/kg, ip administered as DMSO/egg phospholipid formulation; format: ADME, organism-based; set-up: dose 80 mg/kg, route intraperitoneal; details: in vivo
[13] = Half life in plasma of mouse bearing human A2780 cells at 80 mg/kg, ip administered as DMSO/egg phospholipid formulation; format: ADME, organism-based; set-up: dose 80 mg/kg, route intraperitoneal
[14] = system: A2780; assay: Antitumor activity against human A2780 cells xenografted in mouse at 80 mg/kg, ip administered as DMSO/egg phospholipid formulation; format: functional; details: route intraperitoneal, read-out: TGI
[15] = Clearance in plasma of mouse bearing human A2780 cells at 80 mg/kg, ip administered as DMSO/egg phospholipid formulation; format: ADME, organism-based; set-up: dose 80 mg/kg, route intraperitoneal
[16] = Solubility in water; format: physicochemical
[17] = system: Plasma; assay: Apparent volume of distribution in plasma of mouse bearing human A2780 cells at 80 mg/kg, ip administered as DMSO/egg phospholipid formulation; format: ADME, organism-based; set-up: dose 80 mg/kg, route intraperitoneal; details: in vivo
[18] = Cmax in human at 220 mg/m2 administered as DMSO/egg phospholipid formulation; format: ADME, organism-based; details: in vivo
[19] = system: Homo sapiens; assay: Toxicity in human assessed as maximum tolerated dose administered on daily schedule administered as DMSO/egg phospholipid formulation; format: organism-based; details: in vivo
[20] = system: Homo sapiens; assay: Toxicity in human assessed as maximum tolerated dose administered on 3 days schedule administered as DMSO/egg phospholipid formulation; format: organism-based; details: in vivo, 72 h
[21] = Cmax in liver of mouse bearing human A2780 cells at 80 mg/kg, ip administered as DMSO/egg phospholipid formulation; format: ADME, organism-based; set-up: dose 80 mg/kg, route intraperitoneal
[22] = AUC in tumor of mouse bearing human A2780 cells at 80 mg/kg, ip administered as DMSO/egg phospholipid formulation; format: ADME, organism-based, Neoplasm; set-up: dose 80 mg/kg, route intraperitoneal
[23] = Clearance in tumor of mouse bearing human A2780 cells at 80 mg/kg, ip administered as DMSO/egg phospholipid formulation; format: ADME, organism-based, Neoplasm; set-up: dose 80 mg/kg, route intraperitoneal; details: in vivo
[24] = Half life in liver of mouse bearing human A2780 cells at 80 mg/kg, ip administered as DMSO/egg phospholipid formulation; format: ADME, organism-based; set-up: dose 80 mg/kg, route intraperitoneal
[25] = AUC in human at 220 mg/m2 administered as DMSO/egg phospholipid formulation; format: ADME, organism-based; details: plasma
[26] = Half life in tumor of mouse bearing human A2780 cells at 80 mg/kg, ip administered as DMSO/egg phospholipid formulation; format: ADME, organism-based, Neoplasm; set-up: dose 80 mg/kg, route intraperitoneal
[27] = AUC in liver of mouse bearing human A2780 cells at 80 mg/kg, ip administered as DMSO/egg phospholipid formulation; format: ADME, organism-based; set-up: dose 80 mg/kg, route intraperitoneal
[28] = target: Heat shock protein HSP 90-beta (Homo sapiens, UniProt P08238)
Description: Inhibition of HSP90-mediated client protein HER2 degradation

[29] = system: Plasma; assay: Half life in plasma of mouse bearing human WM266.4 cells at 50 mg/kg, iv; format: ADME, organism-based; set-up: dose 50 mg/kg, route intravenous; details: in vivo
[30] = system: Plasma; assay: Apparent volume of distribution in plasma of mouse bearing human WM266.4 cells at 50 mg/kg, ip; format: ADME, organism-based; set-up: dose 50 mg/kg, route intraperitoneal; details: in vivo
[31] = Cmax in tumor of mouse bearing human WM266.4 cells at 50 mg/kg, iv; format: ADME, organism-based, Neoplasm; set-up: dose 50 mg/kg, route intravenous; details: read-out: Cmax_tumor
[32] = Clearance in tumor of mouse bearing human WM266.4 cells at 50 mg/kg, ip; format: ADME, organism-based, Neoplasm; set-up: dose 50 mg/kg, route intraperitoneal; details: in vivo
[33] = Clearance in tumor of mouse bearing human WM266.4 cells at 50 mg/kg, iv; format: ADME, organism-based, Neoplasm; set-up: dose 50 mg/kg, route intravenous; details: in vivo
[34] = Cmax in plasma of mouse bearing human WM266.4 cells at 50 mg/kg, iv; format: ADME, organism-based; set-up: dose 50 mg/kg, route intravenous
[35] = Drug level in tumor of mouse bearing human WM266.4 cells at 50 mg/kg, ip administered once daily for 5 days measured after 24 hrs after final dose; format: ADME, organism-based, Neoplasm; set-up: dose 50 mg/kg, route intraperitoneal; details: read-out: Drug uptake
[36] = system: Plasma; assay: Apparent volume of distribution in plasma of mouse bearing human WM266.4 cells at 50 mg/kg, iv; format: ADME, organism-based; set-up: dose 50 mg/kg, route intravenous; details: in vivo
[37] = system: Mus musculus; assay: Hepatic blood flow in mouse bearing human WM266.4 cells at 50 mg/kg, ip; format: ADME, organism-based, Liver; set-up: dose 50 mg/kg, route intraperitoneal; details: in vivo
[38] = AUC in plasma of mouse bearing human WM266.4 cells at 50 mg/kg, ip; format: ADME, organism-based; set-up: dose 50 mg/kg, route intraperitoneal
[39] = Toxicity in mouse assessed as maximum tolerated dose; format: organism-based; details: in vivo
[40] = system: BT-474; assay: Antitumor activity against human BT474 cells xenografted in mouse at 50 mg/kg, ip; format: functional; details: BT-474, ip, route intraperitoneal, read-out: TGI
[41] = Cmax in tumor of mouse bearing human WM266.4 cells at 50 mg/kg, ip; format: ADME, organism-based, Neoplasm; set-up: dose 50 mg/kg, route intraperitoneal; details: read-out: Cmax_tumor
[42] = Half life in tumor of mouse bearing human WM266.4 cells at 50 mg/kg, ip; format: ADME, organism-based, Neoplasm; set-up: dose 50 mg/kg, route intraperitoneal
[43] = Clearance in plasma of mouse bearing human WM266.4 cells at 50 mg/kg, ip; format: ADME, organism-based; set-up: dose 50 mg/kg, route intraperitoneal
[44] = system: Mus musculus; assay: Toxicity in mouse assessed as body weight loss at 70 mg/kg, ip after 8 days; format: organism-based; set-up: dose 70 mg/kg, route intraperitoneal; details: in vivo, 192 h
[45] = Apparent volume of distribution in tumor of mouse bearing human WM266.4 cells at 50 mg/kg, iv; format: ADME, organism-based, Neoplasm; set-up: dose 50 mg/kg, route intravenous; details: read-out: Vz
[46] = AUC in tumor of mouse bearing human WM266.4 cells at 50 mg/kg, iv; format: ADME, organism-based, Neoplasm; set-up: dose 50 mg/kg, route intravenous
[47] = Metabolic stability in human liver microsomes assessed as drug remaining after 30 mins; format: ADME, Microsome; details: read-out: Stability
[48] = Apparent volume of distribution in tumor of mouse bearing human WM266.4 cells at 50 mg/kg, ip; format: ADME, organism-based, Neoplasm; set-up: dose 50 mg/kg, route intraperitoneal; details: in vivo
[49] = Cmax in plasma of mouse bearing human WM266.4 cells at 50 mg/kg, ip; format: ADME, organism-based; set-up: dose 50 mg/kg, route intraperitoneal
[50] = AUC in plasma of mouse bearing human WM266.4 cells at 50 mg/kg, iv; format: ADME, organism-based; set-up: dose 50 mg/kg, route intravenous
[51] = system: Plasma; assay: Clearance in plasma of mouse bearing human WM266.4 cells at 50 mg/kg, iv; format: ADME, organism-based; set-up: dose 50 mg/kg, route intravenous; details: in vivo
[52] = AUC in tumor of mouse bearing human WM266.4 cells at 50 mg/kg, ip; format: ADME, organism-based, Neoplasm; set-up: dose 50 mg/kg, route intraperitoneal
[53] = Metabolic stability in mouse liver microsomes assessed as drug remaining after 30 mins; format: ADME, Microsome; details: read-out: Stability
[54] = Half life in plasma of mouse bearing human WM266.4 cells at 50 mg/kg, ip; format: ADME, organism-based; set-up: dose 50 mg/kg, route intraperitoneal
[55] = Half life in tumor of mouse bearing human WM266.4 cells at 50 mg/kg, iv; format: ADME, organism-based, Neoplasm; set-up: dose 50 mg/kg, route intravenous
[56] = Antitumor activity against human U87MG cells xenografted in mouse assessed as tumor regression at 50 mg/kg, ip; format: functional, U-87MG ATCC; details: route intraperitoneal
[57] = Half life in plasma of mouse bearing human MM1S cells at 50 mg/kg; format: ADME, organism-based; set-up: dose 50 mg/kg
[58] = Half life in tumor of mouse bearing human MM1S cells at 50 mg/kg; format: ADME, organism-based, Neoplasm; set-up: dose 50 mg/kg

Sequence of Heat shock protein HSP 90-beta (P08238 whole entry): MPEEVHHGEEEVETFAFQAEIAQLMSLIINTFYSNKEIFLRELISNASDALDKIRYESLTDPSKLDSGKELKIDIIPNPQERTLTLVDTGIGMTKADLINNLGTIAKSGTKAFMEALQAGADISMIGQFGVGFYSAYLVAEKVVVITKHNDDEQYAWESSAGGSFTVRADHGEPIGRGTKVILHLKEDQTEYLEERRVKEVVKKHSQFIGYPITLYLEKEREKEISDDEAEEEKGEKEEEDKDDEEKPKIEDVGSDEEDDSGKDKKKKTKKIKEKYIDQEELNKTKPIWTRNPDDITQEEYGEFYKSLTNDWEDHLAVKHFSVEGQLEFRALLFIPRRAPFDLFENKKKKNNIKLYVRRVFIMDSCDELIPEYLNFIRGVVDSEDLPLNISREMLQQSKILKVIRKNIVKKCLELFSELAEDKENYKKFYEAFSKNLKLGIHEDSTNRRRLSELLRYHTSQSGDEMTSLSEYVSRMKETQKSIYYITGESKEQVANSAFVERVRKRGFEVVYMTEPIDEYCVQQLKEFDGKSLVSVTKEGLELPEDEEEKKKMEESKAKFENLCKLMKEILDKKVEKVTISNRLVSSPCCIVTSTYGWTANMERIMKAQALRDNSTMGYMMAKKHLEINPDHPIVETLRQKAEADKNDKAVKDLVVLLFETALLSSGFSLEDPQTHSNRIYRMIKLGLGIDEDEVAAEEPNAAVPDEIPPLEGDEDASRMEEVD

CO[C@H]1/C=C\C=C(/C)C(=O)NC2=CC(=O)C(NCCN(C)C)=C(C[C@@H](C)C[C@H](OC)[C@H](O)[C@@H](C)/C=C(\C)[C@@H]1OC(N)=O)C2=O [ALVESPIMYCIN]
MTD [1]: 12 mg/m2
half-life [2]: 0.433 h
MTD [3]: 8 mg/m2

C=CCNC1=C2C[C@@H](C)C[C@H](OC)[C@H](O)[C@@H](C)/C=C(\C)[C@H](OC(N)=O)[C@@H](OC)/C=C\C=C(/C)C(=O)NC(=CC1=O)C2=O [TANESPIMYCIN]
clearance [4]: 700 mL/min
Vz [5]: 0.34 L
half-life [6]: 3.8 h
AUC [7]: 68 µM·h
Cmax [8]: 35 µM
Vz [9]: 0.01 L
Cmax [10]: 15 µM
inhibition in vivo at 100 mg/kg [11]: 30%
CL [12]: 0.01 L/h
half-life [13]: 0.88 h
inhibition in vivo at 80 mg/kg [14]: 70%
half-life [2]: 9.8 h
CL/F [15]: 0.667 mL/min
solubility [16]: 20 µg/mL (≈ 34.1 µM)
Vz [17]: 0.05 L
Cmax [18]: 7.5 µM
MTD [19]: 56 mg/m2
MTD [20]: 220 mg/m2
Cmax [21]: 126 µM
AUC [22]: 80 µM·h
CL [23]: 0.03 L/h
half-life [24]: 0.86 h
AUC [25]: 22 µM·h
half-life [26]: 7.5 h
AUC [27]: 263 µM·h

C#CCCCn1c(Sc2cc3c(cc2Br)OCO3)nc2c(N)ncnc21
Activity [28]: 30 nM

CCNC(=O)c1noc(-c2cc(C(C)C)c(O)cc2O)c1-c1ccc(CN2CCOCC2)cc1 [LUMINESPIB]
t1/2 [29]: 1 h
Vz [30]: 0.077 L
Cmax [31]: 14 µM
CL [32]: 0.41 L/h
CL [33]: 0.02 L/h
Cmax [34]: 49 µM
concentration at 24 h [35]: 6.8 µM
Vz [36]: 0.875 L
LBF [37]: 108 mL/h
AUC [38]: 26 µM·h
MTD [39]: 50 mg/kg
inhibition in vivo at 50 mg/kg [40]: 79%
Cmax [41]: 6 µM
half-life [42]: 15 h
CL/F [43]: 1.37 mL/min
Activity [44]: 10%
Vd [45]: 0.44 L
AUC [46]: 70 µM·h
remaining at 0.5 h [47]: 41%
Vz [48]: 0.883 L
Cmax [49]: 53 µM
AUC [50]: 15 µM·h
CL [51]: 0.143 L/h
AUC [52]: 36 µM·h
remaining at 0.5 h [53]: 31%
half-life [54]: 1 h
half-life [55]: 15 h
Activity [56]: 58%

CC1(C)CC(=O)c2c(C(F)(F)F)nn(-c3ccc(C(N)=O)c(N[C@H]4CC[C@H](O)CC4)c3)c2C1 [SNX-2112]
half-life [57]: 3 h
half-life [58]: 10 h
